Legend:
[1] = test system: advanced urothelial carcinoma; conditions: luminal 1 subtype compared with other bladder cancer subtypes; cited from earlier work
[2] = test system: CD38+ T cells in peripheral blood; test: BLC2002 phase 1b immune cell profiling of blood by flow cytometry (T cell activation); assay type: in vivo, human; conditions: FIG. 4c; E8RJ cohort at C1D15, erdafitinib treatment alone (run-in)
Description: Blood for immune cell profiling were collected at four time points (C1D1, C1D15, C2D1 and C3D1) and subjected to flow cytometry analysis on a real time basis. T cell activation is quantified as fold increase in the proportions of 1) CD38+CD3, CD38+CD4, or CD38+CD8 T cells out of lymphocytes or CD3 T cell populations, and 2) CD38+ cells out of CD4+ or CD8+T cell populations, compared to the baseline proportion levels at C1D1.
Longitudinal blood samples were analyzed from DL2A (E8J cohort: Erda 8 mg+cetrelimab 240 mg), DL2B (E8RJ cohort: Erda 8 mg 28 days run-in +cetrelimab 240 mg), and DL2 (EJ cohort: Erda 8 mg with the potential dose adjustments to 9 mg depending on phosphate levels measured on C1D15+cetrelimab 240 mg).

atezolizumab: checkpoint inhibitor; antibody that blocks the interaction between PD-1 and PD-L1
response rate by bladder cancer molecular subtype [1]: lowest response rate

COc1cc(OC)cc(N(CCNC(C)C)c2ccc3ncc(-c4cnn(C)c4)nc3c2)c1 [erdafitinib, N-(3,5-dimethoxyphenyl)-N′-(1-methylethyl)-N-[3-(1-methyl-1H-pyrazol-4-yl)quinoxalin-6-yl]ethane-1,2-diamine]
proportion of CD38+CD8 T cells compared to baseline C1D1 [2]: dramatically increased

nivolumab: checkpoint inhibitor; antibody that blocks the interaction between PD-1 and PD-L1
response rate by bladder cancer molecular subtype [1]: lowest response rate

— patent US20220348662A1, “USE OF FGFR INHIBITORS IN FGFR-GENETICALLY ALTERED CANCERS TO ENHANCE PATIENT RESPONSE TO IMMUNE CHECKPOINT INHIBITORS IN SEQUENTIAL TREATMENT SETTINGS” (JANSSEN PHARMACEUTICA NV, priority 2019, published 2022)
